These results are taken from ChEMBL document CHEMBL2401680, “A highly catalytically active γ-carbonic anhydrase from the pathogenic anaerobe Porphyromonas gingivalis and its inhibition profile with anions and small molecules” (Bioorg Med Chem Lett, 2013).

Experiment [1] in a line: Inhibition of Porphyromonas gingivalis recombinant CA by CO2 hydration assay.
In experiment [2] the target is T1, Carbonic anhydrase (Methanosarcina thermophila, UniProt P40881).
T1 sequence (P40881 whole entry): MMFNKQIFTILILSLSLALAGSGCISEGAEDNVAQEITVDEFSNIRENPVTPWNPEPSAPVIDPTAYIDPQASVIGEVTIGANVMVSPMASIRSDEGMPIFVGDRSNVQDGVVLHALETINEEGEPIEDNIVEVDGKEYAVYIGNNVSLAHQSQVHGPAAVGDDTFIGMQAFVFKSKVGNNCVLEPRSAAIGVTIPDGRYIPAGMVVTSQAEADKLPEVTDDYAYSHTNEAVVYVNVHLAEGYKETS
As to the kind of experiment: Inhibition of Methanosarcina thermophila recombinant gamma-CA by CO2 hydration assay.

Each structure is given as a SMILES string.

On to `CCN(CC)C(=S)S` [DITIOCARB SODIUM], for which the Ki in experiment [1] is 0.004 mM.
With `O=[As](O)(O)c1ccccc1` [PHENYLARSONIC ACID], the inhibition constant (Ki) in experiment [1] came to 0.09 mM.
On the same count and under the same terms, the figure for `OB(O)c1ccccc1` [PHENYLBORONIC ACID] is 0.0098 mM; for `[N-]=[N+]=[N-]` [SODIUM AZIDE] it is 0.073 mM.
Consider `O=C([O-])O.[Na+]` [SODIUM BICARBONATE], for which the Ki is 0.96 mM in experiment [1] and 42 mM in experiment [2].
As for `O=S([O-])O.[Na+]` [SODIUM BISULFITE], the Ki in experiment [1] amounted to 9.3 mM; in experiment [2], 11.7 mM.
For `[Br-].[Na+]` [SODIUM BROMIDE], the figures for the inhibition constant Ki in experiment [1] and in experiment [2] were 0.92 mM and 60 mM, respectively.
On to `O=C([O-])[O-].[Na+].[Na+]` [SODIUM CARBONATE], for which the figures for the Ki in experiment [1] and in experiment [2] were 0.89 mM and 6.7 mM, respectively.
Take `S=C(S)S` [SODIUM CARBONOTRITHIOATE]: in experiment [1], the Ki came out at 0.097 mM.
Regarding `[Cl-].[Na+]` [SODIUM CHLORIDE], the Ki in experiment [1] was 0.94 mM; in experiment [2], over 200 mM.
With `[F-].[Na+]` [SODIUM FLUORIDE], in experiment [1], the Ki came out at 0.95 mM.
Same read-out and setting: to `S` [SODIUM HYDROSULFIDE] belongs 0.092 mM.
Still for that read-out and setting: to `O=S(=O)(O)ONOS(=O)(=O)O` [SODIUM IMINODISULFATE] belongs 7.7 mM.
For the molecule `[I-].[Na+]` [SODIUM IODIDE], the Ki in experiment [1] was found to be 8.7 mM; in experiment [2], 160 mM.
With `N=C=[Se]` [SODIUM ISOSELENOCYANATE], in experiment [1], the Ki amounted to 0.91 mM.
Take `N=C=S` [SODIUM ISOTHIOCYANATE]: the Ki was determined as 0.093 mM in experiment [1] and 7 mM in experiment [2].
For `O=[N+]([O-])[O-].[Na+]` [SODIUM NITRATE], in that order: 8.5 mM and 36.5 mM.
On to `O=NO` [SODIUM NITRITE], for which, in experiment [1], the inhibition constant Ki was determined as 3.1 mM.
Regarding `[O-][Cl+3]([O-])([O-])O` [SODIUM PERCHLORATE], the Ki in experiment [1] is over 200 mM.
Take `O=S(=O)(O)OOS(=O)(=O)O` [SODIUM PERSULFATE]: the Ki in experiment [1] stood at 8.7 mM.
Take `O=[Se](=O)(O)O` [SODIUM SELENATE]: the Ki in experiment [1] came out at 85.5 mM.
`O=S(=O)([O-])[O-].[Na+].[Na+]` [SODIUM SULFATE ANHYDROUS]: the Ki in experiment [1] is 8.7 mM; in experiment [2], over 200 mM.
Take `O=[Te](=O)(O)O` [SODIUM TELLURATE]: in experiment [1], the Ki came out at 16.7 mM.
As for `O=BOB(O)OB(O)OB=O` [SODIUM TETRABORATE], the Ki in experiment [1] was 71.6 mM.
As for `F[B-](F)(F)F.[Na+]` [SODIUM TETRAFLUOROBORATE], in experiment [1], the Ki was over 200 mM.
As to `NS(=O)(=O)O` [SULFAMATE], the Ki in experiment [1] stood at 0.093 mM.
The same measure, in the same setting: the figure for `NS(N)(=O)=O` [SULFAMIDE] is 0.0092 mM.

The term Ki denotes the equilibrium dissociation constant of an inhibitor or competing ligand from its target.
